In US20130131139A1, “ROR1 AS A GENE TARGET IN ACUTE LYMPHOBLASTIC LEUKEMIA” (Oregon Health & Science University, priority 2011, published 2013):

Test system: leukemia cells from eight other ALL patients
Assay: Dasatinib cell viability (MTS assay), primary cells of other ALL subsets
Format: cell-based
Conditions: Homo sapiens, 72 h; eight other ALL samples; highest tested concentration 1000 nM; 3 days

IC50: > 1000 nM
Structure (SMILES): Cc1nc(Nc2ncc(C(=O)Nc3c(C)cccc3Cl)s2)cc(N2CCN(CCO)CC2)n1 [dasatinib]
